Assays:
OVCAR-4 = test: NCI-60 one-dose screen, OVCAR-4; type: cell-based; settings: Homo sapiens; OVCAR-4, ovarian cancer; single dose 10 μM; read-out: Growth inhibition %
Description: (§1) Anti-proliferative effects of the counterparts 4a–g and 5a–g were screened against 60 human cancer cell lines, following the Developmental Therapeutics Program protocol, National Cancer Institute[35].
(§2) The anti-tumour activity of the fourteen synthesised congeners was investigated at the NCI against a panel of 60 cancer cell lines (NCI-60 Cell One-Dose Screen). The tested dibenzo[b,f]azepine derivatives were screened at a single dose level (10 μM), Table 1.

NCI-H23 = test: NCI-60 one-dose screen, NCI-H23; type: cell-based; settings: Homo sapiens; NCI-H23, non-small cell lung cancer; single dose 10 μM; read-out: Growth inhibition %
Description: as §1, §2

NCI/ADR-RES = test: NCI-60 one-dose screen, NCI/ADR-RES; type: cell-based; settings: Homo sapiens, ovarian cancer, single dose 10 μM, read-out: Growth inhibition %
Description: as §1, §2

OVCAR-3 = test: NCI-60 one-dose screen, OVCAR-3; type: cell-based; settings: Homo sapiens; OVCAR-3, ovarian cancer; single dose 10 μM; read-out: Growth inhibition %
Description: as §1, §2

HCT-116 = test: NCI-60 one-dose screen, HCT-116; type: cell-based; settings: Homo sapiens; HCT-116, colon cancer; single dose 10 μM; read-out: Growth inhibition %
Description: as §1, §2

SK-MEL-5 = test: NCI-60 one-dose screen, SK-MEL-5; type: cell-based; settings: Homo sapiens; SK-MEL-5, melanoma; single dose 10 μM; read-out: Growth inhibition %
Description: as §1, §2

OVCAR-5 = test: NCI-60 one-dose screen, OVCAR-5; type: cell-based; settings: Homo sapiens; OVCAR-5, ovarian cancer; single dose 10 μM; read-out: Growth inhibition %
Description: as §1, §2

PC-3 = test: NCI-60 one-dose screen, PC-3; type: cell-based; settings: Homo sapiens; PC-3, prostate cancer; single dose 10 μM; read-out: Growth inhibition %
Description: as §1, §2

MDA-MB-435 = test: NCI-60 one-dose screen, MDA-MB-435; type: cell-based; settings: Homo sapiens; MDA-MB-435, melanoma; single dose 10 μM; read-out: Growth inhibition %
Description: as §1, §2

SR = test: NCI-60 one-dose screen, SR; type: cell-based; settings: Homo sapiens, leukaemia, single dose 10 μM, read-out: Growth inhibition %
Description: as §1, §2

OVCAR-8 = test: NCI-60 one-dose screen, OVCAR-8; type: cell-based; settings: Homo sapiens; OVCAR-8, ovarian cancer; single dose 10 μM; read-out: Growth inhibition %
Description: as §1, §2

SF-268 = test: NCI-60 one-dose screen, SF-268; type: cell-based; settings: Homo sapiens; SF-268, CNS cancer; single dose 10 μM; read-out: Growth inhibition %
Description: as §1, §2

DU-145 = test: NCI-60 one-dose screen, DU-145; type: cell-based; settings: Homo sapiens; DU-145, prostate cancer; single dose 10 μM; read-out: Growth inhibition %
Description: as §1, §2

HCT-15 = test: NCI-60 one-dose screen, HCT-15; type: cell-based; settings: Homo sapiens; HCT-15, colon cancer; single dose 10 μM; read-out: Growth inhibition %
Description: as §1, §2

CCRF-CEM = test: NCI-60 one-dose screen, CCRF-CEM; type: cell-based; settings: Homo sapiens, leukaemia, single dose 10 μM, read-out: Growth inhibition %
Description: as §1, §2

COLO 205 = test: NCI-60 one-dose screen, COLO 205; type: cell-based; settings: Homo sapiens; COLO 205, colon cancer; single dose 10 μM; read-out: Growth inhibition %
Description: as §1, §2

HS 578 T = test: NCI-60 one-dose screen, HS 578 T; type: cell-based; settings: Homo sapiens, breast cancer, single dose 10 μM, read-out: Growth inhibition %
Description: as §1, §2

U251 = test: NCI-60 one-dose screen, U251; type: cell-based; settings: Homo sapiens, U-251; U251, CNS cancer; single dose 10 μM; read-out: Growth inhibition %
Description: as §1, §2

MALME-3M = test: NCI-60 one-dose screen, MALME-3M; type: cell-based; settings: Homo sapiens, melanoma, single dose 10 μM, read-out: Growth inhibition %
Description: as §1, §2

HOP-92 = test: NCI-60 one-dose screen, HOP-92; type: cell-based; settings: Homo sapiens; HOP-92, non-small cell lung cancer; single dose 10 μM; read-out: Growth inhibition %
Description: as §1, §2

EKVX = test: NCI-60 one-dose screen, EKVX; type: cell-based; settings: Homo sapiens, non-small cell lung cancer, single dose 10 μM, read-out: Growth inhibition %
Description: as §1, §2

NCI-H322M = test: NCI-60 one-dose screen, NCI-H322M; type: cell-based; settings: Homo sapiens, non-small cell lung cancer, single dose 10 μM, read-out: Growth inhibition %
Description: as §1, §2

SW-620 = test: NCI-60 one-dose screen, SW-620; type: cell-based; settings: Homo sapiens; SW-620, colon cancer; single dose 10 μM; read-out: Growth inhibition %
Description: as §1, §2

NCI-H460 = test: NCI-60 one-dose screen, NCI-H460; type: cell-based; settings: Homo sapiens; NCI-H460, non-small cell lung cancer; single dose 10 μM; read-out: Growth inhibition %
Description: as §1, §2

RXF 393 = test: NCI-60 one-dose screen, RXF 393; type: cell-based; settings: Homo sapiens; RXF 393, renal cancer; single dose 10 μM; read-out: Growth inhibition %
Description: as §1, §2

A549-ATCC = test: NCI-60 one-dose screen, A549-ATCC; type: cell-based; settings: Homo sapiens, non-small cell lung cancer, single dose 10 μM, read-out: Growth inhibition %
Description: as §1, §2

UO-31 = test: NCI-60 one-dose screen, UO-31; type: cell-based; settings: Homo sapiens; UO-31, renal cancer; single dose 10 μM; read-out: Growth inhibition %
Description: as §1, §2

TK-10 = test: NCI-60 one-dose screen, TK-10; type: cell-based; settings: Homo sapiens; TK-10, renal cancer; single dose 10 μM; read-out: Growth inhibition %
Description: as §1, §2

T-47D = test: NCI-60 one-dose screen, T-47D; type: cell-based; settings: Homo sapiens, T47D, breast cancer, single dose 10 μM, read-out: Growth inhibition %
Description: as §1, §2

UACC-257 = test: NCI-60 one-dose screen, UACC-257; type: cell-based; settings: Homo sapiens; UACC-257, melanoma; single dose 10 μM; read-out: Growth inhibition %
Description: as §1, §2

ACHN = test: NCI-60 one-dose screen, ACHN; type: cell-based; settings: Homo sapiens, renal cancer, single dose 10 μM, read-out: Growth inhibition %
Description: as §1, §2

IGROV1 = test: NCI-60 one-dose screen, IGROV1; type: cell-based; settings: Homo sapiens, IGROV-1; IGROV1, ovarian cancer; single dose 10 μM; read-out: Growth inhibition %
Description: as §1, §2

MCF-7 = test: NCI-60 one-dose screen, MCF-7; type: cell-based; settings: Homo sapiens, MCF7; MCF-7, breast cancer; single dose 10 μM; read-out: Growth inhibition %
Description: as §1, §2

CAKI-1 = test: NCI-60 one-dose screen, CAKI-1; type: cell-based; settings: Homo sapiens; CAKI-1, renal cancer; single dose 10 μM; read-out: Growth inhibition %
Description: as §1, §2

Row | Structure (SMILES) | inhibition at 10 µM (OVCAR-4) [%] | inhibition at 10 µM (NCI-H23) [%] | inhibition at 10 µM (NCI/ADR-RES) [%] | inhibition at 10 µM (OVCAR-3) [%] | inhibition at 10 µM (HCT-116) [%] | inhibition at 10 µM (SK-MEL-5) [%] | inhibition at 10 µM (OVCAR-5) [%] | inhibition at 10 µM (PC-3) [%] | inhibition at 10 µM (MDA-MB-435) [%] | inhibition at 10 µM (SR) [%] | inhibition at 10 µM (OVCAR-8) [%] | inhibition at 10 µM (SF-268) [%] | inhibition at 10 µM (DU-145) [%] | inhibition at 10 µM (HCT-15) [%] | inhibition at 10 µM (CCRF-CEM) [%] | inhibition at 10 µM (COLO 205) [%] | inhibition at 10 µM (HS 578 T) [%] | inhibition at 10 µM (U251) [%] | inhibition at 10 µM (MALME-3M) [%] | melting point [°C] | other results
1 | O=C(NNC(=O)N1c2ccccc2C=Cc2ccccc21)c1ccc2ccccc2c1 [Compound 4f, N′-(2-Naphthoyl)-5H-dibenzo[b,f]azepine-5-carbohydrazide] | < 10 | < 10 | < 10 | < 10 | < 10 | < 10 | < 10 | 25.1 | < 10 | 12.8 | < 10 | < 10 | < 10 | < 10 | < 10 | < 10 | < 10 | < 10 | < 10 | 243 to 245 | inhibition at 10 µM (HOP-92): 18.6%; inhibition at 10 µM (EKVX): 11%; inhibition at 10 µM (NCI-H322M): < 10%; inhibition at 10 µM (SW-620): < 10%; inhibition at 10 µM (NCI-H460): < 10%; inhibition at 10 µM (RXF 393): < 10%; inhibition at 10 µM (A549-ATCC): < 10%; inhibition at 10 µM (UO-31): 12%; inhibition at 10 µM (TK-10): < 10%; inhibition at 10 µM (T-47D): 12.6%; inhibition at 10 µM (UACC-257): < 10%; inhibition at 10 µM (ACHN): < 10%; inhibition at 10 µM (IGROV1): < 10%; inhibition at 10 µM (MCF-7): 14%; inhibition at 10 µM (CAKI-1): < 10%
2 | O=C(Cc1ccccc1)NNC(=O)N1c2ccccc2C=Cc2ccccc21 [Compound 4g, N′-(2-Phenylacetyl)-5H-dibenzo[b,f]azepine-5-carbohydrazide] | < 10 | < 10 | < 10 | < 10 | < 10 | < 10 | < 10 | < 10 | < 10 | < 10 | < 10 | < 10 | < 10 | < 10 | < 10 | < 10 | < 10 | < 10 | < 10 | 134 to 136 | inhibition at 10 µM (HOP-92): < 10%; inhibition at 10 µM (EKVX): 13.8%; inhibition at 10 µM (NCI-H322M): < 10%; inhibition at 10 µM (SW-620): < 10%; inhibition at 10 µM (NCI-H460): < 10%; inhibition at 10 µM (RXF 393): < 10%; inhibition at 10 µM (A549-ATCC): < 10%; inhibition at 10 µM (UO-31): < 10%; inhibition at 10 µM (TK-10): < 10%; inhibition at 10 µM (T-47D): < 10%; inhibition at 10 µM (UACC-257): < 10%; inhibition at 10 µM (ACHN): < 10%; inhibition at 10 µM (IGROV1): < 10%; inhibition at 10 µM (MCF-7): < 10%; inhibition at 10 µM (CAKI-1): < 10%
